Assay results from patent US12077503B2, “Substituted cyclic amides and their use as herbicides” (FMC CORPORATION, priority 2015, dated 2024).

Legend:
Type in all cases: in vivo
rice (Oryra sativa) = assay: Test B flooded paddy test; details: Oryza sativa, 250 g ai/ha, Flood; 0 to 100 scale where 0 is no effect and 100 is complete control; read-out: Rice plant response rating
In short: (§1)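 Percent control, visually estimated after 13–15 d in the greenhouse on a 0–100 basis, compares treated pots with untreated ones; compound was put into paddy water 3 cm above the soil when plants had two leaves.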

[1] = system: ducksalad (Heteranthera limosa); assay: Test B flooded paddy test; details: Heteranthera limosa, 250 g ai/ha, Flood; 0 to 100 scale where 0 is no effect and 100 is complete control; read-out: Ducksalad plant response rating
In short: as §1

[2] = system: sedge, umbrella (small-flower umbrella sedge, Cyperus difformis); assay: Test B flooded paddy test; details: Cyperus difformis, 250 g ai/ha, Flood; 0 to 100 scale where 0 is no effect and 100 is complete control; read-out: Sedge, Umbrella plant response rating
In short: as §1

[3] = system: barnyardgrass (Echinochloa crus-galli); assay: Test B flooded paddy test; details: Echinochloa crus-galli, 250 g ai/ha, Flood; 0 to 100 scale where 0 is no effect and 100 is complete control; read-out: Barnyardgrass plant response rating
In short: as §1

[4] = system: pigweed (Amaranthus retroflexus); assay: Test A postemergence; details: Amaranthus retroflexus, post-emergence, 240 h; for pest or weed control at 125 g/ha: 125 g ai/ha, postemergence, visual injury on 0 to 100 scale (0 no effect, 100 complete control), approx. 10 d, read-out: Pigweed plant response rating; for pest or weed control at 31 g/ha: Postemergence, 31 g ai/ha, visual injury after approx. 10 d, 0 to 100 scale, 0 no effect, 100 complete control, read-out: Plant response rating, Pigweed
In short: (§2)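 Treatment is preemergence as a directed soil spray after planting, or postemergence at the one- to two-leaf stage, with test chemical in a non-phytotoxic solvent mixture plus surfactant. Plants stay in the greenhouse about 10 d before visual injury scoring on a 0 to 100 scale versus untreated controls.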

[5] = system: ragweed (common ragweed, Ambrosia elatior); assay: Test A postemergence; details: Ambrosia artemisiifolia, post-emergence, 240 h; for pest or weed control at 125 g/ha: 125 g ai/ha, postemergence, visual injury on 0 to 100 scale (0 no effect, 100 complete control), approx. 10 d, read-out: Ragweed plant response rating; for pest or weed control at 31 g/ha: Postemergence, 31 g ai/ha, visual injury after approx. 10 d, 0 to 100 scale, 0 no effect, 100 complete control, read-out: Plant response rating, Ragweed
In short: as §2

[6] = system: ryegrass, Italian (Italian ryegrass, Lolium multiflorum); assay: Test A postemergence; details: Lolium multiflorum, post-emergence, 240 h; for pest or weed control at 125 g/ha: 125 g ai/ha, postemergence, visual injury on 0 to 100 scale (0 no effect, 100 complete control), approx. 10 d, read-out: Ryegrass, Italian plant response rating; for pest or weed control at 31 g/ha: Postemergence, 31 g ai/ha, visual injury after approx. 10 d, 0 to 100 scale, 0 no effect, 100 complete control, read-out: Plant response rating, Ryegrass, Italian
In short: as §2

[7] = system: Galium (catchweed bedstraw, Galium aparine); assay: Test A postemergence; details: Galium, post-emergence, 240 h; for pest or weed control at 125 g/ha: 125 g ai/ha, postemergence, visual injury on 0 to 100 scale (0 no effect, 100 complete control), approx. 10 d, read-out: Galium plant response rating; for pest or weed control at 31 g/ha: Postemergence, 31 g ai/ha, visual injury after approx. 10 d, 0 to 100 scale, 0 no effect, 100 complete control, read-out: Plant response rating, Galium
In short: as §2

[8] = system: blackgrass (Alopecurus myosuroides); assay: Test A postemergence; details: Alopecurus myosuroides, post-emergence, 240 h; for pest or weed control at 125 g/ha: 125 g ai/ha, postemergence, visual injury on 0 to 100 scale (0 no effect, 100 complete control), approx. 10 d, read-out: Blackgrass plant response rating; for pest or weed control at 31 g/ha: Postemergence, 31 g ai/ha, visual injury after approx. 10 d, 0 to 100 scale, 0 no effect, 100 complete control, read-out: Plant response rating, Blackgrass
In short: as §2

[9] = system: giant foxtail (Setaria faberii); assay: Test A postemergence; details: Setaria faberi, post-emergence, 240 h; for pest or weed control at 125 g/ha: 125 g ai/ha, postemergence, visual injury on 0 to 100 scale (0 no effect, 100 complete control), approx. 10 d, read-out: Foxtail, Giant plant response rating; for pest or weed control at 31 g/ha: Postemergence, 31 g ai/ha, visual injury after approx. 10 d, 0 to 100 scale, 0 no effect, 100 complete control, read-out: Plant response rating, Foxtail, Giant
In short: as §2

[10] = system: wheat (Triticum aestivum); assay: Test A postemergence; details: Triticum aestivum, post-emergence, 240 h; for plant injury at 125 g/ha: 125 g ai/ha, postemergence, visual injury on 0 to 100 scale (0 no effect, 100 complete control), approx. 10 d, read-out: Wheat plant response rating; for plant injury at 31 g/ha: Postemergence, 31 g ai/ha, visual injury after approx. 10 d, 0 to 100 scale, 0 no effect, 100 complete control, read-out: Plant response rating, Wheat
In short: as §2

Kochia (Kochia scoparia) [11] = assay: Test A postemergence; details: Bassia scoparia, post-emergence, 240 h; for pest or weed control at 125 g/ha: 125 g ai/ha, postemergence, visual injury on 0 to 100 scale (0 no effect, 100 complete control), approx. 10 d, read-out: Kochia plant response rating; for pest or weed control at 31 g/ha: Postemergence, 31 g ai/ha, visual injury after approx. 10 d, 0 to 100 scale, 0 no effect, 100 complete control, read-out: Plant response rating, Kochia
In short: as §2

corn (Zea mays) = assay: Test A postemergence; details: Zea mays, post-emergence, 240 h; for plant injury at 125 g/ha: 125 g ai/ha, postemergence, visual injury on 0 to 100 scale (0 no effect, 100 complete control), approx. 10 d, read-out: Corn plant response rating; for Corn plant response rating (crop injury, 0 = no effect, 100 = complete kill) at 31 g/ha: Postemergence, 31 g ai/ha, visual injury after approx. 10 d, 0 to 100 scale, 100 complete control
In short: as §2

[12] = system: barnyardgrass (Echinochloa crus-galli); assay: Test A postemergence; details: Echinochloa crus-galli, post-emergence, 240 h; for pest or weed control at 125 g/ha: 125 g ai/ha, postemergence, visual injury on 0 to 100 scale (0 no effect, 100 complete control), approx. 10 d, read-out: Barnyardgrass plant response rating; for pest or weed control at 31 g/ha: Postemergence, 31 g ai/ha, visual injury after approx. 10 d, 0 to 100 scale, 0 no effect, 100 complete control, read-out: Plant response rating, Barnyardgrass
In short: as §2

[13] = system: pigweed (Amaranthus retroflexus); assay: Test A preemergence; details: Amaranthus retroflexus, pre-emergence, 240 h, 0 to 100 scale where 0 is no effect and 100 is complete control, read-out: Pigweed plant response rating; for pest or weed control at 31 g/ha: 31 g ai/ha, Preemergence; for pest or weed control at 125 g/ha: 125 g ai/ha, preemergence, approx. 10 d
[14] = system: ragweed (common ragweed, Ambrosia elatior); assay: Test A preemergence; details: Ambrosia artemisiifolia, pre-emergence, 240 h, 0 to 100 scale where 0 is no effect and 100 is complete control, read-out: Ragweed plant response rating; for pest or weed control at 31 g/ha: 31 g ai/ha, Preemergence; for pest or weed control at 125 g/ha: 125 g ai/ha, preemergence, approx. 10 d
In short: as §2

[15] = system: ryegrass, Italian (Italian ryegrass, Lolium multiflorum); assay: Test A preemergence; details: Lolium multiflorum, pre-emergence, 240 h, 0 to 100 scale where 0 is no effect and 100 is complete control, read-out: Ryegrass, Italian plant response rating; for pest or weed control at 31 g/ha: 31 g ai/ha, Preemergence; for pest or weed control at 125 g/ha: 125 g ai/ha, preemergence, approx. 10 d
In short: as §2

[16] = system: giant foxtail (Setaria faberii); assay: Test A preemergence; details: Setaria faberi, pre-emergence, 240 h, 0 to 100 scale where 0 is no effect and 100 is complete control, read-out: Foxtail, Giant plant response rating; for pest or weed control at 31 g/ha: 31 g ai/ha, Preemergence; for pest or weed control at 125 g/ha: 125 g ai/ha, preemergence, approx. 10 d
In short: as §2

Kochia (Kochia scoparia) [17] = assay: Test A preemergence; details: Bassia scoparia, pre-emergence, 240 h, 0 to 100 scale where 0 is no effect and 100 is complete control, read-out: Kochia plant response rating; for pest or weed control at 31 g/ha: 31 g ai/ha, Preemergence; for pest or weed control at 125 g/ha: 125 g ai/ha, preemergence, approx. 10 d
In short: as §2

[18] = system: barnyardgrass (Echinochloa crus-galli); assay: Test A preemergence; details: Echinochloa crus-galli, pre-emergence, 240 h, 0 to 100 scale where 0 is no effect and 100 is complete control, read-out: Barnyardgrass plant response rating; for pest or weed control at 31 g/ha: 31 g ai/ha, Preemergence; for pest or weed control at 125 g/ha: 125 g ai/ha, preemergence, approx. 10 d
In short: as §2

SMILES | pest or weed control at 250 g/ha (rice (Oryra sativa)) [%] | pest or weed control at 250 g/ha [1] [%] | pest or weed control at 250 g/ha [2] [%] | pest or weed control at 250 g/ha [3] [%] | pest or weed control at 125 g/ha [4] [%] | pest or weed control at 31 g/ha [4] [%] | pest or weed control at 125 g/ha [5] [%] | pest or weed control at 31 g/ha [5] [%] | pest or weed control at 125 g/ha [6] [%] | pest or weed control at 31 g/ha [6] [%] | pest or weed control at 125 g/ha [7] [%] | pest or weed control at 31 g/ha [7] [%] | pest or weed control at 125 g/ha [8] [%] | pest or weed control at 31 g/ha [8] [%] | pest or weed control at 125 g/ha [9] [%] | pest or weed control at 31 g/ha [9] [%] | plant injury at 125 g/ha [10] [%] | plant injury at 31 g/ha [10] [%] | pest or weed control at 125 g/ha (Kochia (Kochia scoparia) [11]) [%] | pest or weed control at 31 g/ha (Kochia (Kochia scoparia) [11]) [%] | other results
CN1C[C@H](c2csc3c2CCC3)[C@@H](C(=O)Nc2ccccc2S(C)(=O)=O)C1=O [Compound 1082] | 35 | 70 | 0 | 0 | 0 | 0 | 0 | 0 | 0 | 0 | 0 | 0 | 0 | 0 | 0 | 0 | 0 | 0 | 0 | 0 | plant injury at 125 g/ha (corn (Zea mays)): 30%; Corn plant response rating (crop injury, 0 = no effect, 100 = complete kill) at 31 g/ha (corn (Zea mays)): 0%; pest or weed control at 125 g/ha [12]: 30%; pest or weed control at 31 g/ha [12]: 0%; pest or weed control at 31 g/ha [13]: 0%; pest or weed control at 125 g/ha [13]: 0%; pest or weed control at 31 g/ha [14]: 0%; pest or weed control at 125 g/ha [14]: 0%; pest or weed control at 31 g/ha [15]: 0%; pest or weed control at 125 g/ha [15]: 0%; pest or weed control at 31 g/ha [16]: 0%; pest or weed control at 125 g/ha [16]: 0%; pest or weed control at 31 g/ha (Kochia (Kochia scoparia) [17]): 0%; pest or weed control at 125 g/ha (Kochia (Kochia scoparia) [17]): 0%; pest or weed control at 31 g/ha [18]: 0%; pest or weed control at 125 g/ha [18]: 0%
C=C(C)c1cccc([C@H]2CN(C)C(=O)[C@@H]2C(=O)Nc2ccc(F)c(F)c2F)c1 [Compound 1087] | 25 | 30 | 0 | 70 | 30 | 0 | 0 | 0 | 0 | 0 | 70 | 30 | 30 | 0 | 60 | 30 | 0 | 0 | 20 | 0 | plant injury at 125 g/ha (corn (Zea mays)): 0%; Corn plant response rating (crop injury, 0 = no effect, 100 = complete kill) at 31 g/ha (corn (Zea mays)): 0%; pest or weed control at 125 g/ha [12]: 90%; pest or weed control at 31 g/ha [12]: 20%; pest or weed control at 31 g/ha [13]: 0%; pest or weed control at 125 g/ha [13]: 0%; pest or weed control at 31 g/ha [14]: 0%; pest or weed control at 125 g/ha [14]: 0%; pest or weed control at 31 g/ha [15]: 0%; pest or weed control at 125 g/ha [15]: 30%; pest or weed control at 31 g/ha [16]: 90%; pest or weed control at 125 g/ha [16]: 100%; pest or weed control at 31 g/ha (Kochia (Kochia scoparia) [17]): 0%; pest or weed control at 125 g/ha (Kochia (Kochia scoparia) [17]): 60%; pest or weed control at 31 g/ha [18]: 0%; pest or weed control at 125 g/ha [18]: 90%
